Here are results for 28 compounds from patent publication US20180168208A1 (priority 2014, published 2018).

Where a name gives a salt, the structure may show the parent alone. Read-outs that look alike come from different tables or passages of the source.

This assay concerns the target T1, cat T1R1/T1R3 receptor (Felis catus, UniProt A0ABI7Z2I4).
T1 sequence (A0ABI7Z2I4 171-420): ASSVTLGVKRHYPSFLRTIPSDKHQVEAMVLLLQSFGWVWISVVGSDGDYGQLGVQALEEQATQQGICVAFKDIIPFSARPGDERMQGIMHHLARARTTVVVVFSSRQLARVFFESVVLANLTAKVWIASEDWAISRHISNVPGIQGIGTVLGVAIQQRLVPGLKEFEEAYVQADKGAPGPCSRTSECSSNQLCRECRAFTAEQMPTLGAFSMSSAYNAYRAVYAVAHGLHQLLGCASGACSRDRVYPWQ
T1 sequence (Q49KI5 25-865 E206Q/N523D/F654L partner): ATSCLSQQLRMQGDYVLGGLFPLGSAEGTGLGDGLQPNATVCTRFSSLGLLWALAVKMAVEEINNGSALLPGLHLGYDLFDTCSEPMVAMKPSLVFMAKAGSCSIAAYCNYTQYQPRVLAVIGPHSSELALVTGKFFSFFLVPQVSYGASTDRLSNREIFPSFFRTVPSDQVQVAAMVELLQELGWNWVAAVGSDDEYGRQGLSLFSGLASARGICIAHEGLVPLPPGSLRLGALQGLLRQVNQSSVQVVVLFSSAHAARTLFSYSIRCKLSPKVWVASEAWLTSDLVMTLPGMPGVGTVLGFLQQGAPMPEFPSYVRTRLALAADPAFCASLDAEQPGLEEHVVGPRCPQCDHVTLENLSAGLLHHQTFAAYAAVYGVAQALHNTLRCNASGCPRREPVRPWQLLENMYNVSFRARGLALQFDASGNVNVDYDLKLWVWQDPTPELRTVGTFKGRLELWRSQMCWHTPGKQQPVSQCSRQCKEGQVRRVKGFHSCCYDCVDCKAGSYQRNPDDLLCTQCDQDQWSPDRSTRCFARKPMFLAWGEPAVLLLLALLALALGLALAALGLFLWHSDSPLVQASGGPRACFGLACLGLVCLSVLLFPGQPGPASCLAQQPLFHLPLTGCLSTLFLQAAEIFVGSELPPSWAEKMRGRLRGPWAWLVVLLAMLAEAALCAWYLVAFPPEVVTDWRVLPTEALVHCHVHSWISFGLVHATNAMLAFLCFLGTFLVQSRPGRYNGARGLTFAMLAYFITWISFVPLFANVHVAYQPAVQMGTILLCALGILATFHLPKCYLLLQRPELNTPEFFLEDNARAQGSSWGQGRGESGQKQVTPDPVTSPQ
In words: cell-based. To be noted: for function as activators of T1R1/T1R3 (in words): in the presence of alanine. An excerpt:
HEK293 cells that stably express T1R3 and inducibly express T1R1 were exposed to nucleotide derivatives alone or in combination with one or more amino acids and/or one or more nucleotides to activate the umami receptor. Activation of the T1R1/T1R3 receptor was detected by a change in intracellular calcium levels using a calcium sensitive fluorescent dye and/or a luminescent reporter system. Cells that express T1R3 but not T1R1 were used as a control. A FLIPR® Tetra or a FlexStation® 3 was used for data capture.

The mark [1] stands for this setting: maximum response in relation to the response with IMP, 20 mM alanine.
The mark [2] stands for this setting: maximum response of the receptor, 20 mM alanine.
Where [3] appears, read: threshold amount that results in activation of T1R1/T1R3, 20 mM alanine.

In general, EC50 refers to the concentration that produces a half-maximal response. On to `O=c1ccn([C@@H]2O[C@H](COP(=O)(O)O)[C@@H](O)[C@H]2O)c(=O)[nH]1` [UMP, uridine monophosphate, reference compound], for which the EC50 is greater than 30000 µM.

In the case of `O=c1ccn([C@H]2C[C@H](O)[C@@H](COP(O)(O)=S)O2)c(=O)[nH]1` [2′-Deoxyuridine-5′-O-monophosphorothioate (5′-dUMPS)], the “Max resp. (ΔF/F)” value was 0.4200 ΔF/F, the “Max. resp. % of IMP” value is given as 43.4 % of IMP and the Threshold is listed as 5.000 mM.

As to `CNc1ncnc2c1ncn2[C@@H]1O[C@H](COP(=O)(O)O)[C@@H](O)[C@H]1O` [N6-Methyladenosine 5′-monophosphate], the Threshold is reported as 0.020 mM. Moreover, the result (+Alanine (20 mM)) was active.

Take `O=C(Nc1ncnc2c1ncn2[C@@H]1O[C@H](COP(=O)(O)O)[C@@H](O)[C@H]1O)c1ccccc1`: the outcome was active, the “Max resp. (ΔF/F)” value is 1.1 ΔF/F and the Threshold is 0.3 mM. Further, the EC50 (read-out: EC50- with Ala) was greater than 1000 µM.

`CNc1ncnc2c1ncn2[C@H]1C[C@H](OP(=O)(O)O)[C@@H](COP(=O)(O)O)O1` [MRS 2179 ammonium salt hydrate, 2′-Deoxy-N^6-methyl adenosine 3,5′-diphosphate diammonium salt]: the outcome was active.

Turning to `Nc1nc2c(ncn2C2CC(O)C(COP(O)(O)=S)O2)c(=O)[nH]1` (stereo not drawn) [2′-Deoxyguanosine-5′-O-monophosphorothioate], the result was active, the “Max resp. (ΔF/F)” value is reported as 1.0775 ΔF/F, the “Max. resp. % of IMP” value is 86.7 % of IMP and the Threshold came out at 0.0025 mM. In addition, the “function as activators of T1R1/T1R3 (in words)” value (“function as activators” for short) is reported as “activators of T1R1/T1R3”.

For `Nc1nc2c(ncn2C2OC(COP(=O)(O)N3CCOCC3)C(O)C2O)c(=O)[nH]1` (stereo not drawn) [Guanosine 5′-monophosphomorpholidate 4-morpholine-N,N′-dicyclohexylcarboxamidine salt], the outcome (+Alanine (20 mM)) was active. Further, the “Max. resp. % of IMP” value under setting [1] is given as 52.9 % of IMP. In addition, under setting [2], the “Max resp. (ΔF/F)” value is given as 0.5121 ΔF/F. Besides, the Threshold under setting [3] is reported as 0.325 mM.

For the compound `Nc1nc2c(ncn2[C@@H]2O[C@H](COP(=O)(O)OP(=O)(O)OP(=O)(O)O)[C@@H](O)[C@H]2O)c(=O)[nH]1` [Guanosine 5′-triphosphate], the result was active, the EC50 is 700 µM, the “Max resp. (ΔF/F)” value was 1.8075 ΔF/F and the “Max. resp. % of IMP” value is reported as 145.5 % of IMP. Besides, the Threshold was found to be 0.175 mM.

As for `CNc1ccccc1C(=O)OC1C[C@H](n2cnc3c(=O)[nH]c(N)nc32)O[C@@H]1COP(=O)(O)O` (stereo partly drawn) [2′-Deoxy-3′-O-(N′-methylanthraniloyl) guanosine-5′-O-monophosphate], the result was active, the “Max resp. (ΔF/F)” value is listed as 0.295 ΔF/F, the “Max. resp. % of IMP” value is recorded as 23.7 % of IMP and the Threshold amounted to 0.0025 mM. Also, the “function as activators” value is “activators of T1R1/T1R3”.

For the compound “2′-,3′-O-(N′-Methylanthraniloyl)guanosine-5′-O-monophosphate”, the result (+Alanine (20 mM)) was active. Also, the “Max. resp. % of IMP” value under setting [1] was 74.3 % of IMP. The “Max resp. (ΔF/F)” value under setting [2] is listed as 0.7190 ΔF/F. In addition, the Threshold under setting [3] is on record as 0.0014 mM.

As for `O=P(O)(O)OP(=O)(O)OP(=O)(O)OC[C@H]1O[C@@H](n2cnc3c(O)ncnc32)[C@H](O)[C@@H]1O` [inosine triphosphate (ITP), inosine triphosphate], the concentration giving a half-maximal response (EC50) amounted to 80 µM.

In the case of `Nc1ncnc2c1ccn2[C@H]1O[C@@H](COP(=O)(O)O)[C@H](O)[C@@H]1O` (stereo in doubt) [7-Deazaadenosine-5′-O-monophosphate], the result was active and the Threshold is reported as 0.188 mM.

With `Nc1ncnc2c1ncn2[C@@H]1O[C@H](COP(=O)(O)O)[C@@H](O)[C@H]1O` [adenosine monophosphate], the outcome was active and the Threshold was found to be 0.003 mM.

For `O=c1ccn(C2OC(COP(=O)(O)N3CCOCC3)C(O)C2O)c(=O)[nH]1` (stereo not drawn), under setting [1], the “Max. resp. % of IMP” value is 104.8 % of IMP. Further, the “Max resp. (ΔF/F)” value under setting [2] is listed as 1.0150 ΔF/F. Besides, the Threshold under setting [3] is on record as 2.000 mM.

Turning to “2′-,3′-O-(N′-Methylanthraniloyl) guanosine-5′-O-monophosphate”, the “Max. resp. % of IMP” value under setting [1] was 74.3 % of IMP. Further, the “Max resp. (ΔF/F)” value under setting [2] is on record as 0.7190 ΔF/F. Moreover, the Threshold under setting [3] was found to be 0.0014 mM.

`Nc1nc2c(ncn2[C@@H]2O[C@H](COP(=O)(O)OP(=O)(O)O)[C@@H](O)[C@H]2O)c(=S)[nH]1` [6-Thioguanosine-5′-O-disphosphate]: the Threshold is 0.03 mM.

As for `CNc1ncnc2c1ncn2[C@H]1C[C@H](OP(=O)(O)O)[C@@H](COP(=O)(O)O)O1`, the “Max resp. (ΔF/F)” value is on record as 1.8150 ΔF/F, the “Max. resp. % of IMP” value was 146.1 % of IMP and the Threshold was found to be 0.013 mM.

Consider “2′-, 3′-O—(N′-methylanthraniloyl)guanosine-5′-O-monophosphate”, for which the “function as activators” value is given as “activators of T1R1/T1R3”.

Turning to `Nc1ncnc2c1ncn2[C@@H]1O[C@H](COP(=O)(O)O)[C@@H](O)[C@H]1O` [adenosine monophosphate (AMP), adenosine monophosphate, reference compound], the EC50 was 11 µM.

Take `Nc1nc2c(ncn2C2CC(OP(=O)(O)O)C(COP(=O)(O)O)O2)c(=O)[nH]1` (stereo not drawn) [2′-Deoxyguanosine-3′,5′-O-bisphosphate]: the result was active, the “Max resp. (ΔF/F)” value is listed as 1.8925 ΔF/F, the “Max. resp. % of IMP” value is on record as 152.3 % of IMP and the Threshold turned out to be 0.005 mM. Besides, the “function as activators” value is on record as “activators of T1R1/T1R3”.

Regarding `O=P(O)(O)OC[C@H]1O[C@@H](n2cnc3c(NC4CCCC4)ncnc32)[C@H](O)[C@@H]1O` [N6-Cyclopentyladenosine-5′-O-monophosphate], the result was active and the Threshold amounted to 0.013 mM.

As to `Nc1nc2c(ncn2[C@@H]2O[C@H](COP(=O)(O)O)[C@@H](O)[C@H]2O)c(=S)[nH]1` [6-Thioguanosine-5′-O-monophosphate], the result was active.

On to `O=c1[nH]cnc2c1ncn2C1OC(COP(=O)(O)OP(=O)(O)O)C(O)C1O` (stereo not drawn) [Inosine 5′-diphosphate (IDP) sodium salt, inosine 5′-diphosphate (IDP) sodium salt], for which the outcome was active, the “Max resp. (ΔF/F)” value is 0.3 ΔF/F and the “Max. resp. % of IMP” value is recorded as 33.3 % of IMP. Further, the Threshold under setting [3] stood at 0.1625 mM.

For the compound `O=P(O)(O)OCC1OC(n2cnc3c(Cl)ncnc32)C(O)C1O` (stereo not drawn) [6-chloropurineriboside-5′-O-monophosphate], the EC50 amounted to 2 µM, the Threshold is on record as 0.0005 mM and the “function as activators” value was “activators of the T1R1/T1R3 receptor”.

On to `O=c1ccn([C@H]2C[C@H](O)[C@@H](COP(O)(O)=S)O2)c(=O)[nH]1` [2′-Deoxyuridine-5′-O-monophosphosphorothioate (5′-dUMPS)], for which the outcome was active, the “Max resp. (ΔF/F)” value is on record as 0.4200 ΔF/F, the “Max. resp. % of IMP” value was 43.4 % of IMP and the Threshold was found to be 5.000 mM.

In the case of `Nc1nc(Cl)c2ncn(C3OC(COP(=O)(O)O)C(O)C3O)c2n1` (stereo not drawn) [2-amino-6-chloropurineriboside-5′-O-monophosphate], the outcome was active, the EC50 was found to be 0.5 µM and the Threshold came out at 0.00013 mM.

Consider `O=P(O)(O)OCC1OC(n2cnc3c(Cl)ncnc32)C(O)C1O` (stereo not drawn) [6-Chloropurineriboside-5′-O-monophosphate], for which the result was active, the “Max resp. (ΔF/F)” value is recorded as 1.5325 ΔF/F and the “Max. resp. % of IMP” value is 123.3 % of IMP.

With `O=P(O)(O)OC[C@H]1O[C@@H](n2cnc3cncnc32)[C@H](O)[C@@H]1O` [Purine riboside-5′-O-monophosphate, reference compound], the outcome was active and the Threshold came out at 0.005 mM.
